Laboratory results published in patent US6962971B2, “Chemokines and methods for inducing the differentiation of fibroblasts to myofibroblasts” (The Regents of the University of California, priority 2001, dated 2005).
“Also recorded” adds a separate entry of the source.

Tests used:
α-SMA [1] = assay: Immunoblotting for α-SMA in fibroblast extracts; format: cell-based, chicken
Experimental: Plates of fibroblasts were treated as described previously, with 750 ng/ml cCAF or 2.5 ng/ml TGFβ. To block TGFβ, or cCAF activity, anti-cCAF (3 μl) or anti-TGFβ (1 μl) antibody was pre-incubated in 1 ml media for 1 hr at room temperature before being added to cells. After 4 days of treatment, protein extracts were prepared in 1 ml 150 mM RIPA buffer containing protease inhibitors. Protein concentrations were determined using the DC protein assay kit and samples were adjusted to contain equal amounts of protein. SDS-PAGE was performed on 7.5% separating Doucet gels (Doucet and Trifaro, 1988). Protein transfer to nitrocellulose was performed using a wet-transfer apparatus (Bio-Rad) at 100V for 45 min. The membranes were blocked for 1 hr in 5% milk in TTBS and then incubated overnight at 4° C. in mouse anti-α-SMA, to a final IgG concentration of 5 μg/ml, in 1% milk in TTBS. The membranes were washed 3 times for 20 min each with TTBS, incubated in anti-mouse HRP at 1:10,000 in 1% milk for 1hr and washed as above, and the bands visualized using the ECL.

fibroblasts = assay: Induction of differentiation of fibroblasts to myofibroblasts by IL-8 forms; format: cell-based; conditions: IL-8-77 versus IL-8-72
[2] = system: primary chicken embryonic connective tissue fibroblasts; assay: Fibroblast growth assay; format: cell-based; conditions: for effect on fibroblast growth / cell numbers: 3 days treatment, 2% donor calf serum
Experimental: Primary chicken embryonic connective tissue fibroblasts (CEFs) were cultured as previously described in Martins-Green and Feugate (1998). Briefly, these fibroblasts were isolated from 10-day-old chicken embryo body walls, plated at 6×10^6 cells/100 mm plate and cultured for 4 days in 199 medium with 5% donor calf serum, 1% chick serum and 0.3% tryptose phosphate broth. These cultures were passaged once (secondary cultures); the cells were plated at 0.4×10^6 cells/35 mm plate in 199/tryptose phosphate broth and 2% donor calf serum.
Secondary fibroblasts were plated at 0.4×10^6 cells/35 mm plate and cCAF was added to experimental plates. For each experiment, plating efficiency was determined by trypsinizing plates four hours after plating. Cells were counted with a Coulter particle counter to confirm even plating of cells. The media was replaced approximately every 16 hr with 1 ml of […] 199 medium containing 0.3% tryptose phosphate broth and 2% donor calf serum, and 100-1000 ng cCAF [9-90 nM] or C- or N-peptide [64-640 nM] was added to the experimental plates, whereas, control plates contained media only. On day 3, plates were trypsinized to remove all cells and cells were counted using a Coulter counter. To test for specificity, anti-cCAF rabbit serum was pre-incubated with cCAF (3 μl serum/750 ng cCAF [68 nM] or N-peptide [480 nM]) for 1 hr at room temperature before being added to cells.

α-SMA [3] = assay: Immunostaining for α-SMA in fibroblast cultures and collagen gel sections; format: cell-based, chicken; conditions: versus control gels
Experimental: Plates of fibroblasts were treated with cCAF as described previously. After 4 days, the cells were rinsed with PBS, fixed in 4% paraformaldehyde, permeabilized with 0.15% Triton X-100 and incubated with PBS containing 0.1M glycine for 10 min. Cells were blocked for 30 min with 10% goat serum in PBS, incubated with mouse anti-α-SMA, to a final IgG concentration of 20 μg/ml, in 1% BSA/PBS for 1hr at room temperature (RT), and washed three times with 0.1% BSA/PBS for 10 min each. The cells were then incubated in goat anti-mouse FITC or sheep anti-mouse Texas Red (1:100) in 1% BSA/PBS for 1 hr at RT, washed three times for 10 min with 0.1% BSA in PBS and mounted with Vectashield. Collagen gels were rinsed with PBS, fixed in 4% paraformaldehyde for 2 hr, washed three times 30 min each with PBS, and incubated for an additional 30 min in PBS containing 0.1M glycine. This treatment was followed by incubation at 4° C. overnight in 15% sucrose and then incubated under the same conditions in 30% sucrose. After a brief rinse with PBS, the gels were frozen in OCT, sections prepared and collected on gelatin-coated slides, rinsed with PBS, fixed in 4% paraformaldehyde for 10 min, and then incubated again in PBS containing 0.1M glycine for 10 min. This was followed by blocking for 30 min with 10% goat serum in PBS, incubation in primary and secondary antibody as described above, and mounting with Vectashield.

[4] = system: fibroblast-seeded collagen gels; assay: Collagen gel contraction by fibroblasts; format: cell-based, chicken
Experimental: 1.5 ml Vitrogen 100 collagen gels were made in 35 mm plates. Secondary fibroblasts were plated at 0.4×10^6 cells/35 mm plate on top of the gels. After the cells had adhered to the collagen, cCAF was added to experimental plates. The medium was replaced approximately every 16 hr with 1 ml of 199 supplemented with 0.3% tryptose phosphate broth and 2% donor calf serum, and 750 ng cCAF [68 nM] or N-peptide [480 nM] was added to the experimental plates. Control plates contained media only. After 4 days, gels were released. Treatment was continued for 2 more days and gels were photographed every 12 hours. The photographs were used for evaluation of gel contraction by determining the area of the gel using NIH image analysis.

[5] = system: Full-thickness excision wounds on the underside of the wings of 2-week-old chicks; assay: Wounding experiment: closure of excision wounds; format: in vivo, chicken; conditions: 1 μg every other day, topical; versus vehicle (H2O) on contralateral wing
Experimental: Full-thickness excision wounds (approximately 0.5×0.5 cm) were made, using a scalpel blade, on the underside of the wings of 2-week-old chicks. The left wing was treated with vehicle alone (water), and the right wing with […] cCAF [90 nM]. The wounds were photographed immediately after wounding and then covered with Biocclusive bandage. 50 μl vehicle (water) or cCAF was deposited through the bandage onto the wound using a 30-gauge needle. This procedure was repeated the next day and every other day thereafter. On days 3, 5 and 7, the bandages were removed and the wounds were photographed before replacing the bandages and applying the treatment again.

[6] = system: chicken CXC receptor 1 (CXCR1); assay: Chicken cCXCR1-mediated calcium release; format: cell-based; conditions: NIH #373 cells overexpressing chicken CXCR1
Experimental: NIH #373 cells overexpressing the chicken CXC receptor 1 (CXCR1) were exposed to the full-length cCAF molecule, the 15-amino N-terminal peptide of cCAF, or the 28-amino acid C-terminal peptide and calcium release was then measured.

[7] = system: chicken chorioallantoic membrane (CAM); conditions: in vivo; cited from earlier work

With “TGFβ: Transforming Growth Factorβ-1, known stimulator of myofibroblast differentiation [reference compound]” the “α-SMA expression after TGFβ treatment” value (α-SMA [1]; 2.5 ng/ml) was “stimulation of α-SMA”.

With “IL-8-77: 77-residue form of human interleukin-8, SEQ ID NO:4” the “potency at inducing differentiation of fibroblasts to myofibroblasts, relative to the other IL-8 form” value (fibroblasts) was “more potent at inducing differentiation of fibroblasts to myofibroblasts”.

With “LSQGRTLVKMGNELR (Gallusgallus) [N-peptide, 15-amino acid N-terminal peptide of cCAF]” the “effect on fibroblast growth / cell numbers” value [2] was “suppresses the growth of fibroblasts to a level similar to that caused by the whole cCAF molecule; also recorded: decrease in growth similar to that induced by cCAF”, the “dose- and time-dependent pattern of suppression of growth” value ([2]; compared with whole cCAF, not shown) was “same as that of the whole cCAF molecule, albeit at a higher molar concentration” and the “α-SMA immunolabeling of sections of fibroblast-seeded collagen gels” value (α-SMA [3]) was “more cells with fibers staining for α-SMA than control gels”. For the same substance, the “α-SMA levels by immunoblot” value (α-SMA [1]; 750 ng/ml, versus untreated or C-peptide treated cells) was “much higher levels of α-SMA; also recorded: increased levels of α-SMA”, the “contraction of collagen gels after release” value ([4]; 750 ng/ml, 4-5 days treatment before release, versus untreated cells) was “much greater contraction; also recorded: stimulated fibroblasts to contract collagen gels more efficiently than untreated cells; also recorded: contracted the gels more tightly than did untreated cells” and the “contraction of fibroblast clusters on collagen” value ([4]; versus control cells) was “form clusters that are much tighter and generally pull away from the collagen; also recorded: more contracted than clusters in control cells”. The “wound closure at day 3 (days 0-3)” value [5] was “accelerated wound closure during days 0-3, albeit less strongly than with the whole cCAF molecule” and the calcium release ([6]; 400 ng) was “similar, albeit somewhat slower, release”.

For “C-peptide: 28-amino acid peptide extending from residues 59-86 of cCAF (SEQ ID NO:2) (CLDPTAPWVQLIVKALMAKAQLNSDAPL; Gallusgallus) [reference compound]”, the “effect on fibroblast growth / cell numbers” value [2] was “did not suppress the growth of connective tissue fibroblasts”, the “effect on fibroblast growth / cell numbers” value ([2]; listed as C-terminal peptide) was “did not cause a decrease in cell numbers” and the calcium release ([6]; 400 ng) was “failed to induce calcium release”. The calcium release ([6]; 800 ng) was “release of calcium that was similar in magnitude, but differed in time course from the N-peptide-induced release” and the “angiogenic activity of the peptide by itself” value [7] was “angiogenic in vivo”.
